Measurements from patent publication EP4400100A1, “ANT[…] USE IN THE TREATMENT OF CANCER” (Instituto de Investigación Biomédica de Salamanca De la …, priority 2023, dated 2024).

Legend:
Assay type in all cases: cell-based
[1] = system: androgen-treated cancer cell lines (AR+ and AR-); assay: Cell growth after 7 days of treatment with dihydrotestosterone, enzalutamide and their combination; settings: for cell growth on androgen stimulation: DHT 10 nM
Experimental: (§1) • Figure 1. […] Study of cell proliferation by MTT assay in AR+ MCF7, BT474, BT549 and HS 578T lines and in AR-HCC1937, HCC1569 and MDA-MB-231 lines at 24, 48 and 72 hours after enzalutamide treatment. Error bars are not shown when smaller than the symbol size. IC50 (best fit and 95% confidence interval) shown below. • Figure 2. […] Cell viability study by Annexin V/propidium iodide labelling in AR+ MCF7, BT474, BT549 and HS 578T lines and in AR- HCC1937, HCC1569 and MDA-MB-231 lines after 72 hours of enzalutamide treatment. Error bars represent SD. Significance between C- and different conditions shown without brackets (^∗p < 0.05, ^∗∗p < 0.01, ★p<0.001). • Figure 3. A) Effect of […] dihydrotestosterone, 10 µM enzalutamide and their combination on the indicated cell lines after 7 days of treatment. Data are the average of three independent experiments. Error bars represent SD. Statistically significant differences between C- and different conditions are shown without brackets (*p < 0.05, **p < 0.01, *p<0.001). […] Study of cell proliferation by MTT assay in the AR+ LN18 line and in the AR- SKOV-3 and CAL33 lines at 24, 48 and 72 hours after treatment with enzalutamide.
To assess whether the effect of enzalutamide is androgen-independent, we tested the effect of enzalutamide on androgen-treated cancer cell lines. We studied the effects of dihydrotestosterone (DHT) (10 nM), enzalutamide (10 µM) and their combination on the different lines (Figure 3A).

[2] = system: AR+ MCF7, BT474, BT549 and HS 578T lines and AR- HCC1937, HCC1569 and MDA-MB-231 lines; assay: Cell proliferation by MTT assay in breast cancer cell lines
Experimental: as §1

[3] = system: AR+ MCF7, BT474, BT549 and HS 578T lines and AR- HCC1937, HCC1569 and MDA-MB-231 lines; assay: Apoptosis / cell viability by Annexin V/propidium iodide labelling and flow cytometry in breast cancer cell lines; settings: varying concentrations, 72 hours, independent of receptor status
Experimental: as §1

[4] = system: AR+ LN18 line and AR- SKOV-3 and CAL33 lines; assay: Cell proliferation by MTT assay in ovarian, glioblastoma and head and neck cancer cell lines; settings: SKOV-3 (AR-), 24, 48 and 72 hours, preliminary results
Experimental: as §1

| Compound | cell growth on androgen stimulation ([1]; BT474 (AR+) and AR- lines) | cell growth on androgen stimulation ([1]; HS 578 T, followed by BT549 and MCF7 (AR+)) | cell growth inhibition, ranking of cell lines ([2]; MDA-MB-231 (AR-) line, 24, 48 or 72 hours, followed by HCC1569 (AR-), BT474 (AR+) and BT549 (AR+)) | cell proliferation ([2]; all breast cancer cell lines tested (AR+ and AR-), 24, 48 and 72 hours of treatment, higher efficacy at 72 hours) | apoptosis [3] | inhibition of proliferation ([1]; enzalutamide 10 µM alone) | inhibition of cell proliferation ([1]; enzalutamide 10 µM combined with DHT 10 nM, AR+ and AR- cells) | proliferation [4] |
| --- | --- | --- | --- | --- | --- | --- | --- | --- |
| C[C@]12CCC(=O)C[C@@H]1CC[C@@H]1[C@@H]2CC[C@]2(C)[C@@H](O)CC[C@@H]12 [dihydrotestosterone] | No significant differences | highest increase in cell growth | – | – | – | – | – | – |
| CNC(=O)c1ccc(N2C(=S)N(c3ccc(C#N)c(C(F)(F)F)c3)C(=O)C2(C)C)cc1F [enzalutamide] | – | – | the most affected | inhibited cell proliferation in a dose- and time-dependent manner in all cell lines tested | induced apoptosis in a dose-dependent manner | induced a higher inhibition of proliferation than that observed at 72 hours | the inhibition of cell proliferation was less than that of enzalutamide alone | induces an inhibitory effect on proliferation regardless of the androgen receptor status of the tumours |
